Assay results published in patent US4387106A, “Method of treating atherosclerosis with di(aralkyl)ureas and di(aralkyl)thioureas” (American Cyanamid Company, priority 1982, dated 1983).

Columns and labels:
[1] = target: T1, fatty acyl CoA:cholesterol acyl transferase (ACAT) (Rattus norvegicus, UniProt O70536); assay: In vitro inhibition of fatty acyl CoA:cholesterol acyl transferase (ACAT), rat adrenal supernatant; format: biochemical; details: final concentration 5.2 μg./ml., pH 7.4, 37° C., oleoyl CoA (14C)
T1 construct: The supernatant, containing the microsomal fraction, served as the source of the cholesterol-esterifying enzyme; from tissue; host or cells: rat adrenals, homogenate, 1000 x g supernatant containing the microsomal fraction
T1 sequence (O70536 1-545): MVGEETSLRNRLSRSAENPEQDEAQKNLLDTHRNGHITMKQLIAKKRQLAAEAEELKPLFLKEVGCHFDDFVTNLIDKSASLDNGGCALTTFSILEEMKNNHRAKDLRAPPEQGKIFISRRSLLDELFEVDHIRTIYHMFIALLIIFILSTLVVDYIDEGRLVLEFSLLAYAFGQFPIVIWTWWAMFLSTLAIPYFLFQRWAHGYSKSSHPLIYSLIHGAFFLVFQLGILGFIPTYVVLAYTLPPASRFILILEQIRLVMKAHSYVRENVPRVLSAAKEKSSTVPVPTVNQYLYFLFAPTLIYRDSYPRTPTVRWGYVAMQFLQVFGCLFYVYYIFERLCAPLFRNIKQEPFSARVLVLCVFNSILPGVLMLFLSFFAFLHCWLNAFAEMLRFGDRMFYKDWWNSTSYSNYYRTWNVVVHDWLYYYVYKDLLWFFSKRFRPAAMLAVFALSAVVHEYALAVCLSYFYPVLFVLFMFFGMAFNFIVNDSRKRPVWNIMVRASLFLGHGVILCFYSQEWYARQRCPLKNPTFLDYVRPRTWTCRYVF
Experimental: The compounds were tested for their ability to inhibit ACAT according to the following procedure:
Rat adrenals were homogenized in 0.2 M monobasic potassium phosphate buffer, pH 7.4, and centrifuged at 1000 times gravity for 15 minutes at 5° C. The supernatant, containing the microsomal fraction, served as the source of the cholesterol-esterifying enzyme, fatty acyl CoA:cholesterol acyl transferase (ACAT). A mixture comprising 50 parts of adrenal supernatant, 10 parts of albumin (BSA) (50 mg./ml.), 3 parts of test compound (final concentration 5.2 μg./ml.) and 500 parts of buffer was preincubated at 37° C. for 10 minutes. After treatment with 20 parts of oleoyl CoA (^14 C--0.4 μCi) the mixture was incubated at 37° C. for 10 minutes. A control mixture, omitting the test compound, was prepared and treated in the same manner. The lipids from the incubation mixture were extracted into an organic solvent and separated by thin-layer chromatography. The cholesteryl ester fraction was counted in a scintillation counter.

Cholesterol absorption [2] = details: po, 336 h
Experimental: Inhibition of cholesterol absorption was determined by feeding male Sprague-dawley rats weighing 150-170 g. a 1% cholesterol:0.5% cholic acid diet for 2 weeks. The diet also contained compounds being tested at doses of between 0.01% and 0.1% of the diet. […] Feces were collected for each 24 hour period for the remaining 5 days during which the rats were maintained on the 1% cholesterol:0.5% cholic acid plus test compound diet. Fecal ^14 C-neutral sterols were extracted with petroleum ether from saponified feces by the method of Grundy, S. M. et. al., J. Lipid Res., 6, 397 (1965) and counted in a scintillation counter. Acidic sterols (bile acids) were extracted by acidifying the saponified feces and extracting in chloroform:methanol (2:1) and counting the chloroform phase in a scintillation counter. Total extraction of radioactivity (98-100%) from saponified feces is realized by this procedure.
The effect of test compounds on cholesterol absorption was determined by:
1. increase in excreted ^14 C-neutral sterol
2. decrease in excreted ^14 C-acidic sterol
3. decrease in ^14 C-cholesterol or ^14 C-cholesteryl ester in the liver.
4. decrease in ^14 C-cholesterol or ^14 C-cholesteryl ester in the serum.

Cholesterol absorption [3] = details: po, 0.03 % of diet, 336 h
Experimental: Compounds were tested in vitro for their ability to inhibit the enzyme fatty acyl CoA:cholesterol acyl transferase (ACAT) and in vivo for serum hypolipidemic activity as measured by their ability to inhibit lipid absorption in rats.
Inhibition of Cholesterol absorption was determined by feeding male Sprague-Dawley rats, weighing 150-170 g., A 1% cholesterol:0.5% cholic acid diet for 2 weeks. The diet also contained compounds being tested at a dose of 0.03% of the diet. Control rats were fed the same diet without any compound. At the end of the test, the rats were sacrificed by decapitation. Blood is collected, centrifuged at 1.5 kg times gravity for 10 minutes at 4° C., and the serum is then analyzed for cholesterol and triglycerides enzymatically by the method of Trinder, P., Analyst, 77, 321 (1952) on a Centrifichem 400 Analyzer. Livers are removed, a 0.4 g sample is taken from the center of the large lobe, and the sample is subjected to saponification using 25% saturated potassium hydroxide in ethanol. The resulting neutral sterols are extracted with petroleum ether and extract analyzed for cholesterol. The effectiveness of the compound in inhibiting cholesterol absorption is measured by the lowering of either serum cholesterol or liver cholesterol relative the values for control rats.

| inhibition at 5.2 µg/mL [1] | Structure (SMILES) | Result (inhibition of cholesterol absorption, 14C-sterol excretion) (Cholesterol absorption [2]) | Result (inhibition of cholesterol absorption: lowering of serum or liver cholesterol relative to control) (Cholesterol absorption [3]) |
| --- | --- | --- | --- |
| 62.7% | Cc1cc(Cl)ccc1NC(=O)N(Cc1ccccc1)Cc1ccccc1 [1,1-Dibenzyl-3-(4-chloro-2-methylphenyl)urea] | Active | Active |
| 94% | Cc1ccc(NC(=O)N(Cc2ccccc2)Cc2ccccc2)cc1Cl [1,1-Dibenzyl-3-(3-chloro-4-methylphenyl)urea] | Active | Active |
| 81.8% | O=C(Nc1ccc(Cl)cc1C(F)(F)F)N(Cc1ccccc1)Cc1ccccc1 [1,1-Dibenzyl-3-(4-chloro-2-trifluoromethylphenyl)urea] | Active | Active |
| 83.3% | O=C(Nc1ccc(Cl)cc1Cl)N(Cc1ccccc1)Cc1ccccc1 [1,1-Dibenzyl-3-(2,4-dichlorophenyl)urea] | – | Active |
| 89.9% | Cc1ccc(NC(=O)N(Cc2ccccc2)Cc2ccccc2)c(C)c1 [1,1-Dibenzyl-3-(2,4-dimethylphenyl)urea] | Active | Active |
| 71.3% | Cc1ccc(Cl)cc1NC(=O)N(Cc1ccccc1)Cc1ccccc1 [1,1-Dibenzyl-3-(5-chloro-2-methylphenyl)urea] | Active | Active |

More lines, now with the values behind:

| Structure (SMILES) | inhibition at 5.2 µg/mL [1] | Result (inhibition of cholesterol absorption, 14C-sterol excretion) (Cholesterol absorption [2]) | Result (inhibition of cholesterol absorption: lowering of serum or liver cholesterol relative to control) (Cholesterol absorption [3]) |
| --- | --- | --- | --- |
| Cc1ccc(NC(=O)N(Cc2ccccc2)Cc2ccccc2)cc1C [1,1-Dibenzyl-3-(3,4-dimethylphenyl)urea] | 71.8% | Active | Active |
| COc1ccc(C)cc1NC(=O)N(Cc1ccccc1)Cc1ccccc1 [1,1-Dibenzyl-3-(2-methoxy-5-methylphenyl)urea] | 87.8% | Active | Active |
| Cc1cccc(NC(=O)N(Cc2ccccc2)Cc2ccccc2)c1C [1,1-Dibenzyl-3-(2,3-dimethylphenyl)urea] | 88.1% | Active | Active |
| CCOC(=O)c1ccc(NC(=O)N(Cc2ccccc2)Cc2ccccc2)cc1 [1,1-Dibenzyl-3-(4-carboethoxyphenyl)urea] | 94.9% | – | Active |
| Cc1cc(C)c(NC(=O)N(Cc2ccccc2)Cc2ccccc2)cc1C [1,1-Dibenzyl-3-(2,4,5-trimethylphenyl)urea] | 69.1% | – | Active |
| Cc1ccc(NC(=S)N(Cc2ccccc2)Cc2ccccc2)cc1Cl [1,1-Dibenzyl-3-(3-chloro-4-methylphenyl)thiourea] | 94.1% | – | Active |
| Cc1cc(C)c(NC(=O)N(Cc2ccccc2)Cc2ccccc2)c(C)c1 [1,1-Dibenzyl-3-(2,4,6-trimethylphenyl)urea] | 36.9% | Active | Active |
| O=C(Nc1cccc(Br)c1)N(Cc1ccccc1)Cc1ccccc1 [1,1-Dibenzyl-3-(3-bromophenyl)urea] | 91.9% | – | Active |
| O=C(Nc1ccc(Oc2ccccc2)cc1)N(Cc1ccccc1)Cc1ccccc1 [1,1-Dibenzyl-3-(4-phenoxyphenyl)urea] | 94.3% | – | Active |
| CCCCc1ccc(NC(=O)N(Cc2ccccc2)Cc2ccccc2)cc1 [1,1-Dibenzyl-3-(4-n-butylphenyl)urea] | 91.3% | – | Active |
